# Assay results from PMC9496258, “Trace Immunosensing of Multiple Neonicotinoid Insecticides by a Novel Broad-Specific Antibody Obtained from a Rational Screening Strategy” (Biosensors, 2022).
# Legend:
# mAb 4B1 = experiment: icELISA with mAb 4B1 (hybridoma supernatant), coating antigen imidacloprid-OVA; type: binding, mouse; settings: for CR: mAb 4B1, cross-reactivity relative to imidacloprid; for IC50: mAb 4B1, hybridoma supernatant, icELISA
# Experimental: (§1) Procedures for the immunization, cell fusion and clone selection were similar to those described in our previous publications, and indirect non-competitive and competitive ELISAs were sequentially used for hybridoma screening. The generated mAb was purified by protein G from the ascitic fluid and then stored at −20 °C for further analysis. A mouse antibody isotyping kit was used to determine the isotypes of the mAbs.
# (§2) Checkerboard titration was carried out by icELISAs with serial dilutions of the antibody and coating antigen (imidacloprid-OVA). […] The specificity and sensitivity were determined by icELISAs. Briefly, the mixture of standards with different concentrations and equal volume of antibody was added into the reaction wells of pre-coated plates. Standard curves were fitted into a four-parameter logarithmic equation: Y = A2 + [(A1 − A2)/1 + (X/X0)^p], and the half-maximal inhibitory concentration (IC50, defined as the assay sensitivity, was used to calculate cross-reactivity rate(CR).
# (§3) Moreover, sensitivity (IC50) and CR to eight neonicotinoids were assessed by icELISAs.
# 6F11-mAb = experiment: icELISA with purified 6F11-mAb; type: binding, mouse; settings: for CR / IC50: 6F11-mAb; for CR: cross-reactivity relative to imidacloprid; for IC50: imidacloprid-OVA 10 µg/mL; for recognition by the antibody (6F11): in words
# Experimental: as §1, §2
# (§4) Under the optimal working concentrations of 10 µg/mL for imidacloprid-OVA, icELISAs with high sensitivity to neonicotinoid pesticides and metabolites were established.
# mAb 6F11 = experiment: icELISA with mAb 6F11 (hybridoma supernatant), coating antigen imidacloprid-OVA; type: binding, mouse; settings: for CR: mAb 6F11, cross-reactivity relative to imidacloprid; for IC50: mAb 6F11, hybridoma supernatant, icELISA
# Experimental: as §1, §2, §3
# 6F11-rAb [1] = experiment: GNIS (gold lateral-flow immunosensing strip) assay based on 6F11-rAb; type: binding, mouse; settings: for limit detection of T-line disappearance (visual detection limit): normal visual detection; for IC50: with a strip reader
# Excerpt: The preparation method for the conjugate of rAb-gold nanoparticles was based on a previous report. A colloid gold lateral-flow immunosensing strip consisted of three pads (glass fiber membrane, NC membrane and absorption membrane) using a one-sided adhesive polyvinyl chloride sheet as a support. The prepared imidaclothiz-OVA conjugate and goat anti-mouse IgG antibody were immobilized onto the NC membrane as the test line (T line) and control line (C line), respectively. For analysis, standard solutions at different concentrations were added to the 96-well microtiter plate, and then the strip was inserted into the well. After 15 min, the signal was observed using a portable reader (Helmen, Suzhou, China). Standard curves were gained by plotting the signal ratio of the T line to the C line (T/C) against the analyte concentration, and they were also fitted into the four-parameter logarithmic equation.
# The 6F11-rAb was used to establish a rapid and reliable GNIS assay, and the limit detection of T-line disappearance was 5 ng/mL for imidacloprid, clothianidin and imidaclothiz and over 100 ng/mL for thiacloprid, acetamiprid and nitenpyram, judged by normal visual detection (Figure 5). […] Therefore, imidacloprid, clothianidin and imidaclothiz, with better sensitivity, were further determined by spiking experiment.
# mAb 1A5 = experiment: icELISA with mAb 1A5 (hybridoma supernatant), coating antigen imidacloprid-OVA; type: binding, mouse; settings: for CR: mAb 1A5, cross-reactivity relative to imidacloprid; for IC50: mAb 1A5, hybridoma supernatant, icELISA
# Experimental: as §1, §2, §3
# mAb 5C3 = experiment: icELISA with mAb 5C3 (hybridoma supernatant), coating antigen imidacloprid-OVA; type: binding, mouse; settings: for CR: mAb 5C3, cross-reactivity relative to imidacloprid; for IC50: mAb 5C3, hybridoma supernatant, icELISA
# Experimental: as §1, §2, §3
# 6F11-rAb [2] = experiment: icELISA with full-length recombinant 6F11-rAb; type: binding, mouse; settings: for CR: cross-reactivity relative to imidacloprid; for IC50: imidacloprid-OVA 10 µg/mL
# Experimental: Transient production in the HEK 293F suspension cells was performed as described. Briefly, cells were prepared with viable cell density around 1.5 × 10^6 cells/mL and viability above 95 % in 180 mL serum-free culture medium in 500 mL Nunc Erlenmeyer flasks and incubated at 37 °C in 5% CO2 atmosphere and shaken at 130 rpm in an orbital shaker for 2 h. A total of 90 μg of the plasmids (VH:VL = 2:3) mixed with transfection reagent were pre-warmed for 15 min and then transiently transfected into HEK 293F. After 5 days of incubation, the supernatant was collected and purified by protein G. The size of the purified full-length rAb was identified by SDS-PAGE.
# as §2, §4
# [3] = system: anti-imidacloprid monoclonal antibody; design: method as in PMID 31862564; settings: anti-imidacloprid mAb, lateral-flow immunoassay; cited from earlier work
# [4] = system: positive hybridoma clones; experiment: Dual-target icELISA hybridoma screening; type: binding, mouse; settings: analyte at 1 µg/mL, nine clones
# Experimental: as §1
# After cell fusion and the primary screening by non-competitive ELISAs, 37 positive wells of hybridomas giving the absorbance values higher than 0.5 were picked out and filled with fresh culture medium. On the next day, they were quickly rechecked by icELISAs to qualitatively test the ability of recognizing both imidacloprid and acetamiprid. […] Therefore, the top four broad-specific clones were selected and screened with imidacloprid and acetamiprid until stable hybridoma lines were obtained. Then the culture supernatants were collected for characterization of the four kinds of broad-specific mAbs.
# anti-imidaclothiz mAb = system: anti-imidaclothiz mAb; design: method as in PMID 21299253; settings: anti-imidaclothiz mAb-based ELISA; cited from earlier work
SMILES,CR (mAb 4B1),IC50 (mAb 4B1),CR (6F11-mAb),IC50 (6F11-mAb),CR (mAb 6F11),IC50 (mAb 6F11),limit detection of T-line disappearance (visual detection limit) (6F11-rAb [1]),CR (mAb 1A5),IC50 (mAb 1A5),CR (mAb 5C3),IC50 (mAb 5C3),CR (6F11-rAb [2]),IC50 (6F11-rAb [2]),IC50 (6F11-rAb [1]),other results
"CCN(Cc1ccc(Cl)nc1)/C(=C/[N+](=O)[O-])NC [Nitenpyram, nitenpyram]",<0.1%,>1000 ng/mL,4.8%,5.57 ng/mL,8.2%,7.16 ng/mL,over 100 ng/mL,3.7%,31.19 ng/mL,0.8%,30.66 ng/mL,5.1%,7.07 ng/mL,–,CR (mAb 4B1; listed as nitenpyram): no CR
O=[N+]([O-])/C=C1\NCCN1Cc1ccc(Cl)nc1 [6-Cl-PMNI],–,–,132.9%,0.20 ng/mL,–,–,–,–,–,–,–,100.6%,0.36 ng/mL,–,–
"C/C(=N\C#N)N(C)Cc1ccc(Cl)nc1 [Acetamiprid, acetamiprid]",3.1%,92.77 ng/mL,4.5%,5.92 ng/mL,9.5%,6.24 ng/mL,over 100 ng/mL,2.6%,43.34 ng/mL,0.4%,58.52 ng/mL,4.0%,9.04 ng/mL,–,cross-reactivity [3]: 1.1%
"CN/C(=N/CC1CCOC1)N[N+](=O)[O-] (centres unmarked) [Dinotefuran, dinotefuran]",<0.1%,>1000 ng/mL,<0.1%,>1000 ng/mL,<0.1%,>1000 ng/mL,–,<0.1%,>1000 ng/mL,<0.1%,>1000 ng/mL,<0.1%,>1000 ng/mL,–,CR (mAb 4B1; listed as dinotefuran): no CR; CR (mAb 6F11; listed as dinotefuran): without obvious CR; CR (mAb 1A5; listed as dinotefuran): without obvious CR; CR (mAb 5C3; listed as dinotefuran): without obvious CR
"CN1COCN(Cc2cnc(Cl)s2)/C1=N\[N+](=O)[O-] [Thiamethoxam, thiamethoxam]",<0.1%,>1000 ng/mL,<0.1%,>1000 ng/mL,<0.1%,>1000 ng/mL,–,<0.1%,>1000 ng/mL,<0.1%,>1000 ng/mL,<0.1%,>1000 ng/mL,–,CR (mAb 4B1; listed as thiamethoxam): no CR; recognition by the antibody (6F11) (6F11-mAb): cannot recognize; CR (mAb 6F11; listed as thiamethoxam): without obvious CR; CR (mAb 1A5; listed as thiamethoxam): without obvious CR; CR (mAb 5C3; listed as thiamethoxam): without obvious CR
"N#C/N=C1\SCCN1Cc1ccc(Cl)nc1 [Thiacloprid, thiacloprid]",10.2%,28.37 ng/mL,20.6%,1.30 ng/mL,21.2%,2.78 ng/mL,over 100 ng/mL,2.7%,42.91 ng/mL,1.8%,13.39 ng/mL,12.5%,2.89 ng/mL,–,–
"O=[N+]([O-])/N=C1\NCCN1Cc1cnc(Cl)s1 [Imidaclothiz, imidaclothiz]",7.1%,41.09 ng/mL,115.1%,0.23 ng/mL,122.9%,0.48 ng/mL,5 ng/mL,126.7%,0.90 ng/mL,8.6%,2.79 ng/mL,119.8%,0.30 ng/mL,0.7 ng/mL,–
"O=[N+]([O-])NC1=NCCN1Cc1ccc(Cl)nc1 [Imidacloprid, imidacloprid]",100.0%,2.90 ng/mL,100.0%,0.27 ng/mL,100.0%,0.59 ng/mL,5 ng/mL,100.0%,1.14 ng/mL,100.0%,0.24 ng/mL,100.0%,0.36 ng/mL,0.9 ng/mL,inhibition rate [4]: > 50%; cross-reactivity (anti-imidaclothiz mAb): 91.7%
"CN/C(=N\[N+](=O)[O-])NCc1cnc(Cl)s1 [Clothianidin, clothianidin]",4.9%,59.41 ng/mL,58.3%,0.46 ng/mL,41.3%,1.43 ng/mL,5 ng/mL,63.3%,1.80 ng/mL,20.2%,1.19 ng/mL,41.7%,0.86 ng/mL,0.5 ng/mL,cross-reactivity [3]: 4.1%
O=[N+]([O-])/N=C1\NCOCN1Cc1cnc(Cl)s1 [N-desmethyl thiamethoxam],–,–,124.8%,0.21 ng/mL,–,–,–,–,–,–,–,67.8%,0.53 ng/mL,–,recognition by the antibody (6F11) (6F11-mAb): very high affinity
